In US9499493B2, “2,4-pyrimidinediamine compounds and their uses” (Rigel Pharmaceuticals, Inc., priority 2002, dated 2016):
“And” between values parts separate entries of the source, which are not always exact repeats. Identical values can stand only once.

Assays:
[1] = tested on: bone marrow derived mast cells (BMMC); assay: BMMC high cell density IgE activation: TNFalpha; assay type: cell-based, mouse; conditions: anti-IgE, second part of TABLE 1, read-out: BMMC anti-IgE TNF-alpha IC50
In short: (§1)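 IgE-sensitized BMMC (1-3×10^6 cells/ml, MT buffer) were pretreated with compound for 1 h at 37 °C in 0.5% DMSO, then stimulated with DNP-BSA (6× stimulus, 60 ng/ml) for 1 h. Supernatant was taken, and cells were re-incubated 4–5 h in WEI-conditioned medium with compound. Mediators were quantified by ELISA.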

[2] = tested on: cultured human mast cells (CHMC); assay: CHMC high cell density IgE activation: IL-13; assay type: cell-based; conditions: anti-IgE activation
Protocol: (§2) Inhibition of degranulation was measured at both low and high cell density by quantifying the release of the granule specific factors tryptase, histamine and hexosaminidase. Inhibition of release and/or synthesis of lipid mediators was assessed by measuring the release of leukotriene LTC4 and inhibition of release and/or synthesis of cytokines was monitored by quantifying TNF-α, IL-6 and IL-13. Tryptase and hexosaminidase were quantified using fluorogenic substrates as described in their respective examples. […] The protocols of the various assays are provided below.
(§3) After sensitizing, cells are counted, pelleted (1000 rpm, 5-10 minutes), and resuspended at 1-2×10^6 cells/ml in MT buffer. Add 100 ul of cell suspension to each well and 100 ul of compound dilutions. The final vehicle concentration is 0.5% DMSO. Incubate at 37° C. (5% CO2) for 1 hour. After 1 hour of compound treatment, stimulate cells with 6× anti-IgE. Mix wells with the cells and allow plates to incubate at 37° C. (5% CO2) for one hour. After 1 hour incubation, pellet cells (10 minutes, 1000 RPM) and collect 200 ul per well of the supernatant, being careful not to disturb pellet. Place the supernatant plate on ice. During the 7-hour step (see next) perform tryptase assay on supernatant that had been diluted 1:500. Resuspend cell pellet in 240 ul of CM media containing 0.5% DMSO and corresponding concentration of compound. Incubate CHMC cells for 7 hours at 37° C. (5% CO2). After incubation, pellet cells (1000 RPM, 10 minutes) and collect 225 ul per well and place in −80° C. until ready to perform ELISAS. ELISAS are performed on appropriately diluted samples (determined empirically for each donor cell population so that the sample measurement falls within the standard curve) following the supplier's instructions.

[3] = tested on: bone marrow derived mast cells (BMMC); assay: BMMC high cell density IgE activation: LTC4; assay type: cell-based, mouse; conditions: anti-IgE, second part of TABLE 1
In short: as §1

[4] = tested on: cultured human mast cells (CHMC); assay: CHMC high cell density IgE activation: LTC4; assay type: cell-based; conditions: anti-IgE activation
Protocol: as §2, §3

[5] = tested on: cultured human mast cells (CHMC); assay: CHMC low cell density ionomycin activation: tryptase assay; assay type: cell-based
[6] = Sheep model of allergic asthma (Ascaris suum challenge); assay type: in vivo; conditions: aqueous suspension; for LAR and AHR (in words) / AHR (% inhibition) / EAR (% inhibition) / LAR (% inhibition): 45 mg/sheep; for LAR and AHR (in words): 60 minutes prior to allergen challenge; for AHR (% inhibition) / EAR (% inhibition) / LAR (% inhibition): pretreatment 60 min
Protocol: Sheep develop bronchoconstriction within minutes of exposure to inhaled antigen (Ascaris suum), with maximal airflow obstruction during the early allergic response (EAR). Release of preformed mast cell mediators is likely responsible for this early phase of airflow obstruction. […] In the sheep, AHR develops a few hours following antigen challenge, and can persist for up to 2 weeks.
In the sheep model of allergic asthma, sheep are administered aerosols of test article via an endotracheal tube, followed by an aerosol challenge with antigen extracted from the roundworm, Ascaris suum, to which the sheep are naturally allergic. Allergen challenge leads to direct bronchoconstriction (both EAR and LAR) and a persistent non-specific AHR. These three characteristics are similar to those seen in human allergic asthmatics. The activity of the test agent is determined by changes in the lung resistance (RL), which is calculated from measurements of transpulmonary pressure, flow, and respiratory volume. […] The LAR is a less pronounced increase in RL, which starts approximately 5-6 hours following allergen challenge and is resolved by 8 hours post-challenge. Twenty-four hours after the challenge, a dose response to carbachol is measured to determine the AHR, which is expressed as the dose of carbachol required to increase RL by 400% over baseline. (This measurement is referred to as the provocative concentration of carbachol that elicits a 400% increase in RL over baseline (PC400). The data are compared to historical control data for the same individual when administered a saline control aerosol and challenged with Ascaris suum.

[7] = tested on: Jurkat cells; assay: Jurkat toxicity, Cell Titer Glo assay; assay type: cell-based; conditions: 18 hours incubation
Protocol: Seed 50 μl cells (1×10^6/ml) into each well containing 50 μl compound. […] Shake plates for 1 minute to mix cells and compound. Incubate plates at 37° C. […] Next day, harvest 50 μl cells from each well, add to 50 μl Cell Titer Glo reagent ([…]). Shake plates for 1 minute. Read on luminometer.

[8] = tested on: basophil cells; assay: Basophil dustmite activation: histamine release assay; assay type: cell-based; conditions: human basophils, house dustmite stimulus; second part of TABLE 1
Protocol: (§4) The basophil activation assay was carried out using whole human peripheral blood from donors allergic to dust mites with the majority of the red blood cells removed by dextran sedimentation. Human peripheral blood was mixed 1:1 with 3% dextran T500 and RBCs were allowed to settle for 20-25 min. The upper fraction was diluted with 3 volumes of D-PBS and cells were spun down for 10 min at 1500 rpm, RT. Supernatant was aspirated and cells were washed in an equal volume MT-buffer. Finally, cells were resuspended in MT-buffer containing 0.5% DMSO in the original blood volume. 80 uL cells were mixed with 20 uL compound in the presence of 0.5% DMSO, in triplicate, in a V-bottom 96-well tissue culture plate. A dose range of 8 compound concentrations was tested resulting in a 10-point dose response curve including maximum (stimulated) and minimum (unstimulated) response. […] The cells were stimulated for 30 minutes at 37° C., 5% CO2. The plate was spun for 10 min at 1500 rpm at room temperature and 80 uL the supernatant was harvested for histamine content analysis using the histamine ELISA kit supplied by Immunotech. The ELISA was performed according to supplier's instructions.

[9] = tested on: basophil cells; assay: Basophil IgE activation: histamine release assay; assay type: cell-based, human; conditions: Basophils, anti-IgE
Protocol: as §4

| Compound | IC50 [1] [µM] | IC50 [2] [µM] | IC50 [3] [µM] | IC50 [4] [µM] | IC50 [5] [µM] | LAR and AHR (in words) [6] | AHR (% inhibition) [6] [%] | EAR (% inhibition) [6] | LAR (% inhibition) [6] [%] | EAR (in words) [6] | IC50 [7] [µM] | IC50 [8] [µM] | IC50 [9] [µM] |
| --- | --- | --- | --- | --- | --- | --- | --- | --- | --- | --- | --- | --- | --- |
| CNC(=O)COc1cccc(Nc2ncc(F)c(Nc3ccc4c(c3)NCCO4)n2)c1 [R921219, N4-(1,4-Benzoxazin-6-yl)-5-fluoro-N2-[3-(N-methylamino)carbonylmethyleneoxyphenyl]-2,4-pyrimidinediamine] | 0.039 | 0.175 | 0.04 | 0.034 | > 10 | blocked | 90 | 54% and 56% | 75 | greatly reduced | > 10 | 0.02 | 0.025 |
| CNC(=O)COc1cccc(Nc2ncc(F)c(Nc3cccc(O)c3)n2)c1 [R926508, 5-Fluoro-N4-(3-hydroxyphenyl)-N2-[3-(N-methylamino)carbonylmethyleneoxyphenyl]-2,4-pyrimidinediamine] | 0.054 | 0.763 | 0.162 | 0.505 | > 10 | blocked | 88 | 21% | 90 | greatly reduced | > 10 | 0.054 | 0.065 |
